This note sets out measurements from ChEMBL document CHEMBL4715778, “Sobetirome prodrug esters with enhanced blood-brain barrier permeability” (Bioorg Med Chem, 2016).

One may read the half-life as the time needed for the level to fall by half in the phase considered. A high value points to slow decline.

What all share (type): ADME, organism-based
A short description of series [1]: Prodrug conversion in C57Bl/6 mouse brain assessed as increase in sobetirome level at 1.5 micromol/kg, ip after 30 mins by LC-MS/MS analysis relative to sobetirome control. Particulars: in vivo, 0.5 h, dose 1.5 µmol/kg.
Series [2] can be described thus: AUC (0 to t) in C57Bl/6 mouse serum assessed as sobetirome level at 1.5 microM/Kg, ip upto 8 hrs by LC-MS/MS analysis. The settings on record: in vivo. The arrangement: route intraperitoneal, dose 1.5 µM/Kg, time <=8.
Series [3] is described as follows: AUC (0 to t) in C57Bl/6 mouse brain assessed as sobetirome level at 1.5 microM/Kg, ip upto 8 hrs by LC-MS/MS analysis. The arrangement: route intraperitoneal, dose 1.5 µM/Kg, time <=8. The settings on record: in vivo.
Series [4] is described as follows: Ratio of AUC in brain to serum in C57Bl/6 mouse assessed as sobetirome level at 1.5 microM/Kg, ip upto 8 hrs by LC-MS/MS analysis.
Series [5] can be described thus: Ratio of AUC (0 to t) in brain to liver in C57Bl/6 mouse assessed as sobetirome level at 1.5 microM/Kg, ip upto 8 hrs by LC-MS/MS analysis. The settings on record: in vivo.
Series [6] can be described thus: AUC (0 to t) in C57Bl/6 mouse liver assessed as sobetirome level at 1.5 microM/Kg, ip upto 8 hrs by LC-MS/MS analysis. Also noted: route intraperitoneal, dose 1.5 µM/Kg, time <=8. The settings on record: in vivo.
Series [7] in a line: Ratio of AUC (0 to t) in brain to serum in C57Bl/6 mouse assessed as sobetirome level at 1.5 microM/Kg, ip upto 8 hrs by LC-MS/MS analysis.
The nature of series [8]: Ratio of AUC in brain to liver in C57Bl/6 mouse assessed as sobetirome level at 1.5 microM/Kg, ip upto 8 hrs by LC-MS/MS analysis. Particulars: in vivo.
Series [9] in a line: Ratio of AUC in C57Bl/6 mouse brain to liver at 1.5 microM/Kg, ip upto 8 hrs by LC-MS/MS analysis. Particulars: in vivo.
Series [10] in a line: Ratio of AUC in C57Bl/6 mouse brain to serum at 1.5 microM/Kg, ip upto 8 hrs by LC-MS/MS analysis. Particulars: read-out: Ratio AUC.
Series [11] is described as follows: AUC (0 to t) in C57Bl/6 mouse liver at 1.5 microM/Kg, ip upto 8 hrs by LC-MS/MS analysis. Also noted: route intraperitoneal, dose 1.5 µM/Kg, time <=8. The settings on record: in vivo.
Series [12] is described as follows: AUC (0 to t) in C57Bl/6 mouse serum at 1.5 microM/Kg, ip upto 8 hrs by LC-MS/MS analysis. Also noted: route intraperitoneal, dose 1.5 µM/Kg, time <=8. Particulars: in vivo.
Series [13] is described as follows: Half life in iv dosed mouse. The settings on record: in vivo.
Series [14] is described as follows: AUC (0 to t) in C57Bl/6 mouse brain at 1.5 microM/Kg, ip upto 8 hrs by LC-MS/MS analysis. The arrangement: route intraperitoneal, dose 1.5 µM/Kg, time <=8. The settings on record: in vivo.

For `Cc1cc(OCC(=O)OCCN2CCOCC2)cc(C)c1Cc1ccc(O)c(C(C)C)c1`, the Drug metabolism result in series [1] is listed as “Metabolite_Notdetected”. `Cc1cc(OCC(=O)OCCN)cc(C)c1Cc1ccc(O)c(C(C)C)c1.Cl`: the values for the AUC in series [2], in series [3] and in series [6] were 367.8 ng·h/g, 17.1 ng·h/g and 1897 ng·h/g, respectively. In addition, the “fold change (FC)” value in [4] was 7; in [8], 4; in series [1] it was 2. Further, the “Ratio AUC” value was 0.009 in [5] and 0.05 in series [7].

Consider `Cc1cc(OCC(=O)OCCN(C)C)cc(C)c1Cc1ccc(O)c(C(C)C)c1`, for which the Drug metabolism result in [1] is reported as “Metabolite_Notdetected”. Still for that read-out and setting: next, `Cc1cc(OCC(=O)OC2CCNCC2)cc(C)c1Cc1ccc(O)c(C(C)C)c1`: “Metabolite_Notdetected”. The same measure, in the same setting: to `Cc1cc(OCC(=O)OC2CCCNC2)cc(C)c1Cc1ccc(O)c(C(C)C)c1` (stereo not given) belongs “Metabolite_Notdetected”; to `Cc1cc(OCC(=O)Oc2ccc(C[C@H](N)C(=O)O)cc2)cc(C)c1Cc1ccc(O)c(C(C)C)c1.Cl`, “Metabolite_Notdetected”. As for `Cc1cc(OCC(=O)OC[C@H]2CCCN2)cc(C)c1Cc1ccc(O)c(C(C)C)c1`, the Drug metabolism result in series [1] is on record as “Metabolite_Notdetected”.

On to `Cc1cc(OCC(=O)OC[C@H]2O[C@@H](O)[C@H](O)[C@@H](O)[C@@H]2O)cc(C)c1Cc1ccc(O)c(C(C)C)c1`, for which the Drug metabolism result in [1] was “Metabolite_Notdetected”. As to `Cc1cc(OCC(=O)OC2CNC2)cc(C)c1Cc1ccc(O)c(C(C)C)c1`, the Drug metabolism entry in [1] is recorded as “Metabolite_Notdetected”.

As for `Cc1cc(OCC(=O)OCCNC(=O)[C@@H](N)CCCCN)cc(C)c1Cc1ccc(O)c(C(C)C)c1.Cl.Cl`, the Drug metabolism result in [1] was “Metabolite_Notdetected”. Same read-out and setting: next, `CCOC(=O)COc1cc(C)c(Cc2ccc(O)c(C(C)C)c2)c(C)c1`: “Metabolite_Notdetected”; `Cc1cc(OCC(=O)OCC2CCCCN2)cc(C)c1Cc1ccc(O)c(C(C)C)c1` (stereo not given): “Metabolite_Notdetected”; `Cc1cc(OCC(=O)OCC[N+](C)(C)C)cc(C)c1Cc1ccc(O)c(C(C)C)c1.[Br-]`: “Metabolite_Notdetected”. Take `Cc1cc(OCC(=O)OC2(C)CNC2)cc(C)c1Cc1ccc(O)c(C(C)C)c1`: the Drug metabolism entry in series [1] was “Metabolite_Notdetected”. As to `Cc1cc(OCC(=O)OCCNC(=O)[C@@H](N)C(C)C)cc(C)c1Cc1ccc(O)c(C(C)C)c1.Cl`, the Drug metabolism entry in series [1] is given as “Metabolite_Notdetected”.

In the case of `Cc1cc(OCC(=O)OC2CN(C)C2)cc(C)c1Cc1ccc(O)c(C(C)C)c1`, the Drug metabolism result in [1] is given as “Metabolite_Notdetected”. As to `Cc1cc(OCC(=O)O)cc(C)c1Cc1ccc(O)c(C(C)C)c1` [SOBETIROME], the “Ratio AUC” value in series [9] is recorded as 0.004. Moreover, in series [10], the Kp at 8 h was 0.02. The AUC in series [11] was found to be 2933 ng·h/g; in series [12], 681.7 ng·h/g; in [14], 10.8 ng·h/g. The compound also gave a half-life in series [13] of 1.3 h. For the same compound, the Drug metabolism entry in series [1] is “Metabolite_Notdetected”.
